Assay results from patent US11957690B2, “Chromogenic beta-lactamase substrate” (BROWN UNIVERSITY, priority 2018, dated 2024).
In brackets after ≈: the same amount, converted by molar mass.

Key:
Staphylococcus aureus = conditions: cited from earlier work
penicillinase = experiment: Color change / absorbance spectrum in penicillinase; type: biochemical; conditions: for Absorbance/time response in penicillinase, comparison with CENTA: FIG. 5
Description: FIG. 3 is a set of absorbance spectrum charts showing the color change of Compound 1 (ANT) in the presence of a β-lactamase came with a definite shift in Compound 1 (ANT) absorbance spectrum upon adding penicillinase, thus cleaving the β-lactam ring and expelling the 3′-leaving group. […] As the β-lactam ring is cleaved by the enzymes, the peak at 260 nm disappears.
FIG. 5 is a comparison between Compound 1 (ANT) response and CENTA response.
FIG. 6 is a chart showing deprotected ANT-maleimide in penicillinase, measuring the absorbance of conjugate at different time points.

gram-negative species = conditions: cited from earlier work
MRSA MW2 = experiment: Microdilution assay, antibacterial efficacy (MIC); type: cell-based, methicillin-resistant Staphylococcus aureus; conditions: Staphylococcus aureus, Gram +, βL producing Yes, 18 h, 37° C.
Protocol: (§1) The antibacterial effect of Substrate Compound 2 was tested against Staphylococcus aureus, Escherichia coli, MRSA, and Pseudomonas aeruginosa in a microdilution assay. Substrate Compound 2 was dissolved in dimethyl sulfoxide at a concentration of 2.56 mg/mL and diluted to a concentration of 256 μg/mL in sterile phosphate-buffered saline. Substrate Compound 2 solutions and a control of 10% dimethyl sulfoxide in cation-adjusted Mueller Hinton broth (CMHB) or tryptic soy broth (TSB) were serially diluted 1:2 with cation-adjusted Mueller Hinton broth or tryptic soy broth in a 96-well plate. Cation-adjusted Muller-Hinton broth (CMHB) is commercially available from MilliporeSigma (Billerica, MA, USA).
(§2) Bacteria in its log phase was added to the wells at a final concentration of 10^5 CFU/mL. Positive controls of bacteria cultured in only media and negative controls of cation-adjusted Mueller Hinton broth or tryptic soy broth without bacteria were included. After eighteen hours of shaking at 100 rpm at 37° C., the optical density at 600 nm (OD600) was measured using a BioTekQ® normalized bacteria density was calculated using equation 1: […]

P. aeruginosa PA01 = experiment: Microdilution assay, antibacterial efficacy (MIC); type: cell-based; conditions: Pseudomonas aeruginosa, Gram −, βL producing Yes, 18 h, 37° C.
Protocol: as §1, §2

S. aureus 25923 = experiment: Microdilution assay, antibacterial efficacy (MIC); type: cell-based; conditions: Staphylococcus aureus, Gram +, βL producing No, 18 h, 37° C.
Protocol: as §1, §2

E. coli 25922 = experiment: Microdilution assay, antibacterial efficacy (MIC); type: cell-based; conditions: Escherichia coli, Gram −, βL producing Yes, 18 h, 37° C.
Protocol: as §1, §2

S. aureus 29213 = experiment: Microdilution assay, antibacterial efficacy (MIC); type: cell-based; conditions: Staphylococcus aureus, Gram +, βL producing Yes, 18 h, 37° C.
Protocol: as §1, §2

[1] = system: β-lactamases from Bacillus cereus, Pseudomonas aeruginosa, and Enterobacter cloacae; experiment: Michaelis-Menten kinetics of hydrolysis; type: biochemical; conditions: compared with commercially available chromogenic β-lactamase substrates
Protocol: To further characterize substrate-enzyme relationships between Substrate Compound 2 and β-lactamases, kinetic parameters were measured using Michaelis-Menten kinetics.
Parameters were determined for Substrate Compound 2 and commercially available chromogenic β-lactamase substrates CENTA and nitrocefin as comparisons, using different β-lactamases. All kinetic experiments were performed for concentrations of Substrate Compound 2 ranging from 0.025-0.2 mg/mL with 10% DMSO, and concentrations of 4 ranging from 1.5-12.1 mg/mL in 0.15 M sodium phosphate buffer pH 7 at 37° C. Hydrolysis of Substrate Compound 2 was measured by continuously recording the change in absorbance at 410 nm on a BioTekQ® Cytation3 plate reader. The kM, kcat, and VMax values were calculated through the initial velocities and the direct fitting of the Michaelis-Menten curve to the data through GraphPad Prism software.

Aqueous solubility = type: physicochemical
B. cereus = experiment: Microdilution assay, antibacterial efficacy (MIC); type: cell-based; conditions: Bacillus cereus, Gram +, βL producing Yes, 18 h, 37° C.
E. cloacae = experiment: Microdilution assay, antibacterial efficacy (MIC); type: cell-based; conditions: Enterobacter cloacae, Gram −, βL producing Yes, 18 h, 37° C.
[2] = target: T1, β-lactamase from Enterobacter cloacae (Enterobacter cloacae, UniProt P05364); experiment: Colorimetric / UV-vis response to β-lactamase; type: biochemical; conditions: 10% DMSO, 37° C.
T1 construct: purchased MilliporeSigma
T1 sequence (P05364 21-381): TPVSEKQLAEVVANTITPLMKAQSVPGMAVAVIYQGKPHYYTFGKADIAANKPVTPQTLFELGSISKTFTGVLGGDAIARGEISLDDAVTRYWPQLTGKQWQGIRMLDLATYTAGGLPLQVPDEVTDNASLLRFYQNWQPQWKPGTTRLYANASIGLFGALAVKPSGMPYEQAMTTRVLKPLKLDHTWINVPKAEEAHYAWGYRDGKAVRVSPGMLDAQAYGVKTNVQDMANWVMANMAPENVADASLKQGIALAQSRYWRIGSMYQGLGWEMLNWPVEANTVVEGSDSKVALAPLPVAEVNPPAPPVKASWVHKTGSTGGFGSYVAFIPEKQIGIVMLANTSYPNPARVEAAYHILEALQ
Protocol: (§3) Substrate Compound 2 was tested with a class B β-lactamase from Bacillus cereus (Bebrone et al., Antimicrobial Agents Chemother., 45, 1868-1871 (2001)). Substrate Compound 2 was tested with class C β-lactamases (from Pseudomonas aeruginosa (Mirsalehian et al., Iranian J. Microbiol., 6, 306-310 (2014)) and β-lactamase from Enterobacter cloacae (Seeberg, Tolxdorff-Neutzling & Wiedemann, Antimicrobial Agents Chemother., 23, 918-925 (1983)). These bacteria are present in many infections, including wounds. See, Bodey et al., Clinical Infectious Diseases, 5, 279-313 (2011) and Davin-Regli & Pages, Frontiers in Microbiology, 6, 392 (2015).
(§4) 96-well plate. Substrate Compound 2 was dissolved in DMSO at a concentration of two mg/ml. Fifteen μL of Substrate Compound 2 was added to a well of a 96-well plate. […] The samples of Substrate Compound 2 in β-lactamases from Bacillus cereus (200 U/mL in M sodium phosphate buffer, pH 7) were incubated for thirty minutes at 37° C. before the absorbance of the solution from 230 to 650 nm was measured using a BioTekQ®
(§5) Cytation3 plate reader. For the samples in Pseudomonas aeruginosa (50 U/mL in 0.15 M sodium phosphate buffer, pH 7), the absorbance was measured after ninety minutes at 37° C. […] For the samples in Enterobacter cloacae (1 U/ml in M sodium phosphate buffer, pH 7), the absorbance was measured after three hours at 37° C. […]

[3] = target: T2, β-lactamase from Pseudomonas aeruginosa (Pseudomonas aeruginosa, UniProt P24735); experiment: Colorimetric / UV-vis response to β-lactamase; type: biochemical; conditions: 10% DMSO, 37° C.
T2 construct: purchased MilliporeSigma
T2 sequence (P24735 27-397): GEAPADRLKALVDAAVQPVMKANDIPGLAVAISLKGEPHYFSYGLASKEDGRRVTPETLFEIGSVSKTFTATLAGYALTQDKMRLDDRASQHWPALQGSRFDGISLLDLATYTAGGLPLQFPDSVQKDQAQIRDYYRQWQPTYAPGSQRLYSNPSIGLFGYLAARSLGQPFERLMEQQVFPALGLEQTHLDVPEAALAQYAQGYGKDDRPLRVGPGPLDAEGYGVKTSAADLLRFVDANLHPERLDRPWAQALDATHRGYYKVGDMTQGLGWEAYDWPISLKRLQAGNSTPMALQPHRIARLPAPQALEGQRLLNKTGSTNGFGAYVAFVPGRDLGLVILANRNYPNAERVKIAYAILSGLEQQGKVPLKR
Protocol: as §3, §4, §5

[4] = target: T3, β-lactamase from Bacillus cereus (Bacillus cereus, UniProt P04190); type: biochemical
T3 construct: purchased MilliporeSigma
T3 sequence (P04190 31-257): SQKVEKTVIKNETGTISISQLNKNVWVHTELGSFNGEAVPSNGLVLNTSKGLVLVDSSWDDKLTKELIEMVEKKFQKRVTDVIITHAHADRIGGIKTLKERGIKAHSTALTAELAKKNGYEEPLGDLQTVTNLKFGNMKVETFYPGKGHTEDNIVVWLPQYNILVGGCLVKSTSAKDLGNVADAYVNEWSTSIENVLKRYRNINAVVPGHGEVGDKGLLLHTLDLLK
Protocol: as §3
The inventors measured the concentration-dependent absorbance shift in a spectral scan of Substrate Compound 2 with different concentrations (U/mL) of β-lactamase from Bacillus cereus or in phosphate-buffered saline after 45 minutes at 37° C. The absorbance signal at 410 nm increased to a maximum as a function of β-lactamase concentration. The inventors also performed these measurements for β-lactamase from Pseudomonas aeruginosa and Enterobacter cloacae.
96-well plate. […] The samples of Substrate Compound 2 in β-lactamases from Bacillus cereus (200 U/mL in M sodium phosphate buffer, pH 7) were incubated for thirty minutes at 37° C. before the absorbance of the solution from 230 to 650 nm was measured using a BioTekQ® […]

O=C(Cc1cccs1)N[C@@H]1C(=O)N2C(C(=O)O)=C(CSc3ccc([N+](=O)[O-])c(C(=O)O)c3)CS[C@H]12 [CENTA]
Antibacterial activity against Staphylococcus aureus (Staphylococcus aureus): some activity | Absorbance/time response in penicillinase, comparison with CENTA (penicillinase): reaches its maximum absorbance at a faster rate than Compound 1 (ANT) | Antibacterial activity against gram-negative species (gram-negative species): not antibacterial

COc1ccc(COC(=O)C2=C(CSc3ccc([N+](=O)[O-])cc3)CSC3C(N)C(=O)N23)cc1 (stereo not drawn) [Compound 1]
Color change in penicillinase compared to PBS (penicillinase; 1.5 hours at 37° C.): showed a significant color change | Shift of maximum absorbance peak on cleavage by penicillinase (penicillinase; 1.5 hours at 37° C.): maximum absorbance peak shifts from 345 nm to 410 nm | Color change of the conjugate incubated in penicillinase or phosphate-buffered saline (penicillinase; Example 1, protected conjugate of ACLE and NBT): does not undergo a color change | Absorbance/time response in penicillinase, comparison with CENTA (penicillinase): behave similarly

CN(C)c1ccc(N=Nc2cccc[n+]2CC2=C(C(=O)[O-])N3C(=O)[C@@H](NC(=O)Cc4cccs4)[C@H]3SC2)cc1 [PADAC]
Antibacterial activity against Staphylococcus aureus (Staphylococcus aureus): some activity | Antibacterial activity against gram-negative species (gram-negative species): not antibacterial

NC1C(=O)N2C(C(=O)O)=C(CSc3ccc([N+](=O)[O-])cc3)CSC12 (stereo not drawn) [Substrate Compound 2]
MIC (MRSA MW2): > 128 µg/mL | MIC (P. aeruginosa PA01): > 128 µg/mL | MIC (S. aureus 25923): 8 µg/mL (≈ 21.8 µM) | MIC (E. coli 25922): > 128 µg/mL | MIC (S. aureus 29213): 8 µg/mL (≈ 21.8 µM) | Kinetic rate of hydrolysis by β-lactamases [1]: kinetic rate similar to commercially available chromogenic β-lactamase substrates | Aqueous solubility (Aqueous solubility): not soluble in aqueous conditions | MIC (B. cereus): > 128 µg/mL | MIC (E. cloacae): > 128 µg/mL | Color change when mixed with β-lactamase [2]: changed color from clear to yellow | Color change when mixed with β-lactamase [3]: changed color from clear to yellow | Lower detection limit of β-lactamase ([4]; absorbance at 410 nm, 45 minutes at 37° C., β-lactamase 0.78-400 U/mL): approximately 3.12 U/mL | Color change when mixed with β-lactamase ([4]; β-lactamase from Bacillus cereus, 10% DMSO, 37° C.): changed color from clear to yellow

O=C(Cc1cccs1)N[C@@H]1C(=O)N2C(C(=O)O)=C(/C=C/c3ccc([N+](=O)[O-])cc3[N+](=O)[O-])CS[C@H]12 [nitrocefin]
Antibacterial activity against Staphylococcus aureus (Staphylococcus aureus): some activity | Antibacterial activity against gram-negative species (gram-negative species): not antibacterial
